From paper PMC11012124, “Synthesis of Novel Triazine-Based Chalcones and 8,9-dihydro-7H-pyrimido[4,5-b][1,4]diazepines as Potential Leads in the Search of Anticancer, Antibacterial and Antifungal Agents” (International Journal of Molecular Sciences, 2024)

What was measured:
[1] = tested on: 60 cancer cell lines; test: NCI-60 one-dose screen (10 μM); assay type: cell-based; conditions: Homo sapiens; one dose of 10 μM, mean over 60 cancer cell lines; read-out: Mean Growth Percent (MGP)
Excerpt: Additionally, the mean of the growth percentages (MGP) of each compound against all the 60 cancer cell lines is also reported, which is used as one of the selection criteria to continue with tests at five concentration doses.

[2] = tested on: MOLT-4; test: cells; conditions: Homo sapiens, MOLT-4, 48 h; for CC50: read-out: LC50
[3] = tested on: RPMI-8226; test: cells; conditions: Homo sapiens, RPMI-8226, 48 h; for CC50: read-out: LC50
[4] = tested on: SR; test: cells; conditions: Homo sapiens, 48 h; for CC50: read-out: LC50
[5] = tested on: A549/ATCC; test: cells; conditions: Homo sapiens, A549, 48 h; for CC50: read-out: LC50
[6] = tested on: HOP-92; test: cells; conditions: Homo sapiens, HOP-92, 48 h; for CC50: read-out: LC50
[7] = tested on: NCI-H226; test: cells; conditions: Homo sapiens, NCI-H226, 48 h; for CC50: read-out: LC50
[8] = tested on: NCI-H23; test: cells; conditions: Homo sapiens, NCI-H23, 48 h; for CC50: read-out: LC50
[9] = tested on: NCI-H522; test: cells; conditions: Homo sapiens, NCI-H522, 48 h; for CC50: read-out: LC50
[10] = tested on: HCT-116; test: cells; conditions: Homo sapiens, HCT-116, 48 h; for CC50: read-out: LC50
[11] = tested on: SW-620; test: cells; conditions: Homo sapiens, SW-620, 48 h; for CC50: read-out: LC50
[12] = tested on: SNB-19; test: cells; conditions: Homo sapiens, SNB-19, 48 h; for CC50: read-out: LC50
[13] = tested on: U251; test: cells; conditions: Homo sapiens, U-251, 48 h; for GI50: U251, 48 h; for CC50: read-out: LC50
[14] = tested on: LOX IMVI; test: cells; conditions: Homo sapiens, 48 h; for CC50: read-out: LC50, LOX IMVI, 48 h
[15] = tested on: MDA-MB-435; test: cells; conditions: Homo sapiens, MDA-MB-435, 48 h; for CC50: read-out: LC50
[16] = tested on: SK-MEL-2; test: cells; conditions: Homo sapiens, SK-MEL-2, 48 h; for CC50: read-out: LC50
[17] = tested on: IGROV1; test: cells; conditions: Homo sapiens, IGROV-1, 48 h; for CC50: read-out: LC50
[18] = tested on: ACHN; test: cells; conditions: Homo sapiens, 48 h; for CC50: read-out: LC50
[19] = tested on: PC-3; test: cells; conditions: Homo sapiens, PC-3, 48 h; for CC50: read-out: LC50
[20] = tested on: DU-145; test: cells; conditions: Homo sapiens, DU-145, 48 h; for CC50: read-out: LC50
[21] = tested on: MDA-MB-231/ATCC; test: cells; conditions: Homo sapiens, MDA-MB-231, 48 h; for CC50: read-out: LC50
[22] = tested on: BT-549; test: cells; conditions: Homo sapiens, BT-549, 48 h; for CC50: read-out: LC50
[23] = tested on: T-47D; test: cells; conditions: Homo sapiens, T47D, 48 h; for CC50: read-out: LC50
[24] = tested on: NCI/ADR-RES; test: cells; conditions: Homo sapiens, 48 h

CN(C)c1nc(NCCNS(=O)(=O)c2ccc(C(=O)/C=C/c3ccc(F)cc3)cc2)nc(N2CCOCC2)n1 [23f]
activity at 10 µM [1]: 27.6%
GI50 [2]: 4.69 µM
CC50 [2]: > 100 µM
GI50 [3]: 1.91 µM
CC50 [3]: > 100 µM
GI50 [4]: 3.45 µM
CC50 [4]: > 100 µM
GI50 [5]: 13.7 µM
CC50 [5]: 56.8 µM
GI50 [6]: 12.7 µM
CC50 [6]: 63.5 µM
GI50 [7]: 12.3 µM
CC50 [7]: 64.7 µM
GI50 [8]: 14.6 µM
CC50 [8]: 54.3 µM
GI50 [9]: 13.3 µM
CC50 [9]: 53.2 µM
GI50 [10]: 2.29 µM
CC50 [10]: 16.8 µM
GI50 [11]: 3.38 µM
CC50 [11]: 40.8 µM
GI50 [12]: 13.4 µM
CC50 [12]: 52.1 µM
GI50 [13]: 4.74 µM
CC50 [13]: 41.5 µM
GI50 [14]: 1.63 µM
CC50 [14]: 6.19 µM
GI50 [15]: 11.6 µM
CC50 [15]: 51.9 µM
GI50 [16]: 13.7 µM
CC50 [16]: 52.7 µM
GI50 [17]: 2.27 µM
CC50 [17]: 25.4 µM
GI50 [18]: 13.1 µM
CC50 [18]: 51.4 µM
GI50 [19]: 11.2 µM
CC50 [19]: 58.5 µM
GI50 [20]: 14.4 µM
CC50 [20]: 53.8 µM
GI50 [21]: 12.3 µM
CC50 [21]: 51.8 µM
GI50 [22]: 15.1 µM
CC50 [22]: 56.7 µM
GI50 [23]: 11.9 µM
CC50 [23]: 94.2 µM

CN(C)c1nc(NCCNS(=O)(=O)c2ccc(C(=O)/C=C/c3ccccc3)cc2)nc(N2CCOCC2)n1 [23a]
activity at 10 µM [1]: 61.9%
GI50 [2]: 4.27 µM
CC50 [2]: > 100 µM
GI50 [3]: 3.25 µM
CC50 [3]: > 100 µM
GI50 [4]: 3.2 µM
CC50 [4]: > 100 µM
GI50 [5]: 13.6 µM
CC50 [5]: 59.1 µM
GI50 [6]: 12.2 µM
CC50 [6]: 58 µM
GI50 [7]: 13.5 µM
CC50 [7]: 74.2 µM
GI50 [8]: 16 µM
CC50 [8]: 58 µM
GI50 [9]: 13.6 µM
CC50 [9]: 54.1 µM
GI50 [10]: 1.82 µM
CC50 [10]: 7.1 µM
GI50 [11]: 3.41 µM
CC50 [11]: 42.7 µM
GI50 [12]: 14.8 µM
CC50 [12]: 57.3 µM
GI50 [13]: 11.7 µM
CC50 [13]: 57.2 µM
GI50 [14]: 1.97 µM
CC50 [14]: 8.68 µM
GI50 [15]: 14.7 µM
CC50 [15]: 54.4 µM
GI50 [16]: 15.3 µM
CC50 [16]: 56.9 µM
GI50 [17]: 15.3 µM
CC50 [17]: 66.4 µM
GI50 [18]: 18.2 µM
CC50 [18]: 72.2 µM
GI50 [19]: 8.63 µM
CC50 [19]: 58.9 µM
GI50 [20]: 15.1 µM
CC50 [20]: 53.3 µM
GI50 [21]: 13.9 µM
CC50 [21]: 54.7 µM
GI50 [22]: 11.2 µM
CC50 [22]: 50 µM
GI50 [23]: 16 µM
CC50 [23]: 87.4 µM

Nc1nc(N)c2c(n1)NC(c1ccc(C(F)(F)F)cc1)CC(c1ccc(Nc3nc(NCCO)nc(Nc4ccc(Cl)cc4)n3)cc1)=N2 (stereo not shown) [33g]
activity at 10 µM [1]: -44.8%
GI50 [2]: 0.888 µM
CC50 [2]: > 100 µM
GI50 [3]: 1.51 µM
CC50 [3]: > 100 µM
GI50 [4]: 1.46 µM
CC50 [4]: > 100 µM
GI50 [5]: 1.73 µM
CC50 [5]: 7.08 µM
GI50 [6]: 1.48 µM
CC50 [6]: 7.94 µM
GI50 [7]: 1.84 µM
CC50 [7]: 8.31 µM
GI50 [9]: 1.34 µM
CC50 [9]: 5.54 µM
GI50 [10]: 1.05 µM
CC50 [10]: 5.54 µM
GI50 [11]: 1.6 µM
CC50 [11]: 7.04 µM
GI50 [12]: 1.51 µM
CC50 [12]: 5.76 µM
GI50 [13]: 1.24 µM
CC50 [13]: 5.16 µM
GI50 [14]: 1.77 µM
GI50 [15]: 1.4 µM
CC50 [15]: 5.3 µM
GI50 [16]: 1.67 µM
CC50 [16]: 5.64 µM
GI50 [17]: 1.37 µM
GI50 [24]: 1.95 µM
GI50 [18]: 1.5 µM
CC50 [18]: 5.31 µM
GI50 [19]: 1.54 µM
GI50 [20]: 1.51 µM
CC50 [20]: 5.33 µM
GI50 [21]: 1.88 µM
GI50 [22]: 1.57 µM
CC50 [22]: 6.34 µM
GI50 [23]: 1.55 µM
CC50 [23]: 8.75 µM
